# Assay results reported in US9556109B1, “Triscationic amphiphile derivative compounds having a pendent alcohol group, compositions thereof, and methods for making same” (James Madison Innovations, Inc., priority 2015, dated 2017).
# Key:
# P. aeruginosa (G−) [1] = test: Minimum inhibitory concentration (MIC), P. aeruginosa; type: cell-based, Pseudomonas aeruginosa
# E. coli (G−) = test: Minimum inhibitory concentration (MIC), E. coli; type: cell-based, Escherichia coli
# S. aureus (G+) = test: Minimum inhibitory concentration (MIC), S. aureus; type: cell-based, Staphylococcus aureus
# E. faecalis (G+) = test: Minimum inhibitory concentration (MIC), E. faecalis; type: cell-based, Enterococcus faecalis; conditions: Experiment 2, Table 3
# B. subtilis (G+) = type: cell-based; conditions: Experiment 2, Table 3
# S. agalactiae (G+) = test: Minimum inhibitory concentration (MIC), S. agalactiae; type: cell-based, Streptococcus agalactiae; conditions: Experiment 2, Table 3
# B. anthracis (G+) = type: cell-based; conditions: Experiment 2, Table 3
# [2] = Isothermal titration calorimetry: critical aggregation concentration and degree of ionization; type: physicochemical; conditions: 37° C.; for CAC: ITC, pure water
# Procedure: Isothermal titration calorimetry (ITC) was used to determine the critical aggregation concentration (CAC) and the degree of ionization at 37° C. associated with aggregate formation for each amphiphile for the M-E series, as shown in Table 1.
# A Nano ITC was used to measure the heat change associated with the deaggregation of amphiphiles via power compensation. A concentrated aqueous solution of amphiphile (>>CAC) was titrated into a thermally controlled sample cell, initially containing pure water, in a series of discrete injections. Isothermal titration calorimetry was used to determine the critical aggregation concentration (CAC).
# CAC and ΔHagg were determined using a Nano-ITC (TA-Instruments). Prior to each experiment the sample cell was washed with dH2O (300 mL), ethanol (100 mL), dH2O (300 mL) and nanopure water (200 mL). Next, 950 μL of nanopure water was added to the sample cell. A concentrated aqueous solution (>>CAC) of amphiphile was prepared and equilibrated at 37° C. A 250 μL syringe was filled with the aqueous solution, and loaded into the Nano ITC. Multiple single injections in aliquots of 5 μL were injected into the sample cell with time intervals varying from 300 s to 1400 s. Samples were continuously stirred (300 rpm) throughout the titration. The Nano-Analyze program (TA-Instruments) was used to analyze the data. CAC and ΔHagg values reported are the average of two or more repeat experiments for each amphiphile.
# Pa1 (G−) = test: Minimum inhibitory concentration (MIC), Pa1; conditions: Experiment 1, Table 2
# Pa2 (G−) = test: Minimum inhibitory concentration (MIC), Pa2; conditions: Experiment 1, Table 2
# [3] = tested on: Pseudomonas aeruginosa biofilm; test: Crystal Violet Biofilm Disruption Assay; type: cell-based; conditions: for Max % disruption: over 250-2 μM
# Procedure: A Crystal Violet Biofilm Disruption Assay was adapted from the techniques described in Bendouah, et al. 2006, Biofilm formation by Staphylococcus aureus and Pseudomonas aeruginosa is associated with an unfavorable evolution after surgery for chronic sinusitis and nasal polyposis, Otolaryngol. […] Bacteriol. 193 (20):5616-22. doi: 10.1128/JB.05534-11, which are incorporated by reference in their entirety. Applicants' adapted assay was performed as follows: • 1. Bacterial growth: […] (120 RPM in shaking incubator) for 24 hours • 2. Working stock: Overnight liquid culture diluted down to a bacterial concentration of approximately 5×10^6 CFU/mL in fresh LB • 3. Plate inoculation: Sterile 96-well microtiter plate inoculated with working stock: […] Plate covered with plastic cover, parafilm wrapped around edges; Incubate 24 hours at 37 degrees C. (stationary incubator) to establish biofilm • 4. Treatment: Row A and B: 100 μL sterile PBS (blank and negative control for disruption, respectively); […] Plate covered, wrapped with fresh parafilm, incubated at 37 degrees C. for 24 hours • 5. Staining and quantification: Plate rinsed twice with 1×PBS and allowed to dry; Wells stained with 100 μL 0.1% Crystal Violet dye for 15 minutes, excess rinsed off with gentle running dI water, allowed to dry; Stain dissolved in 100 μL 95% ethanol per well for 1 hour; Ethanol/CV solution transferred to fresh 96-well plate; Plate read at 570 nm on spectrophotometer plate reader; Values for rows C-H compared to row B (neg. control for disruption) to obtain % biofilm disruption at each concentration.
# Gram-positive bacteria = test: MIC, summary for Gram-positive bacteria; type: cell-based; conditions: text summary over tested strains
# Gram-negative bacteria = test: MIC, summary for Gram-negative bacteria; type: cell-based; conditions: text summary over tested strains
# P. aeruginosa (G−) [4] = conditions: comparison values of known antibiotics; cited from earlier work
smiles,measurement,setting,value
CCCCCCCC[N+](C)(C)Cc1cc(C[N+](C)(C)CCO)cc(C[N+](C)(C)CCCCCCCC)c1.[Br-].[Br-].[Br-] [Compound 1],MIC P. aeruginosa (G−),"P. aeruginosa (G−) [1]; Experiment 2, Table 3",>250 µM
same,MIC E. coli (G−),"E. coli (G−); Experiment 2, Table 3",>250 µM
same,MIC S. aureus (G+),"S. aureus (G+); Experiment 2, Table 3",250 µM
same,MIC E. faecalis (G+),E. faecalis (G+),63 µM
same,MIC B. subtilis (G+),B. subtilis (G+),250 µM
same,MIC S. agalactiae (G+),S. agalactiae (G+),125 µM
same,MIC B. anthracis (G+),B. anthracis (G+),63 µM
CCCCCCCCCCCCCCCC[N+](C)(C)Cc1cc(C[N+](C)(C)CCO)cc(C[N+](C)(C)CCCCCCCCCCCCCCCC)c1.[Br-].[Br-].[Br-] [Compound 5],Degree of Ionization,[2],0.15
same,CAC,[2],0.12 mM
same,MIC P. aeruginosa (G−),"P. aeruginosa (G−) [1]; Experiment 1, Table 2",125 µM
same,MIC P. aeruginosa (G−),"P. aeruginosa (G−) [1]; Experiment 2, Table 3",125 µM
same,MIC E. coli (G−),"E. coli (G−); Experiment 1, Table 2",63 µM
same,MIC E. coli (G−),"E. coli (G−); Experiment 2, Table 3",63 µM
same,MIC S. aureus (G+),"S. aureus (G+); Experiment 1, Table 2",63 µM
same,MIC S. aureus (G+),"S. aureus (G+); Experiment 2, Table 3",63 µM
same,MIC E. faecalis (G+),E. faecalis (G+),63 µM
same,MIC B. subtilis (G+),B. subtilis (G+),>250 µM
same,MIC S. agalactiae (G+),S. agalactiae (G+),>250 µM
same,MIC B. anthracis (G+),B. anthracis (G+),>250 µM
same,MIC Pa1 (G−),Pa1 (G−),>250 µM
same,MIC Pa2 (G−),Pa2 (G−),>250 µM
CCCCCCCCCCCC[N+](C)(C)Cc1cc(C[N+](C)(C)CCO)cc(C[N+](C)(C)CCCCCCCCCCCC)c1.[Br-].[Br-].[Br-] [Compound 3],Degree of Ionization,[2],0.20
same,CAC,[2],1.9 mM
same,MIC P. aeruginosa (G−),"P. aeruginosa (G−) [1]; Experiment 1, Table 2",8 µM
same,MIC P. aeruginosa (G−),"P. aeruginosa (G−) [1]; Experiment 2, Table 3",8 µM
same,MIC E. coli (G−),"E. coli (G−); Experiment 1, Table 2",4 µM
same,MIC E. coli (G−),"E. coli (G−); Experiment 2, Table 3",4 µM
same,MIC S. aureus (G+),"S. aureus (G+); Experiment 1, Table 2",4 µM
same,MIC S. aureus (G+),"S. aureus (G+); Experiment 2, Table 3",4 µM
same,MIC E. faecalis (G+),E. faecalis (G+),2 µM
same,MIC B. subtilis (G+),B. subtilis (G+),4 µM
same,MIC S. agalactiae (G+),S. agalactiae (G+),2 µM
same,MIC B. anthracis (G+),B. anthracis (G+),2 µM
same,Min conc. >50% disruption,[3],63 µM
same,% disruption average,[3]; 2 μM,0%
same,% disruption trial 1,[3]; 2 μM,0%
same,% disruption trial 2,[3]; 2 μM,0%
same,% disruption average,[3]; 4 μM,5.12%
same,% disruption trial 1,[3]; 4 μM,1.759%
same,% disruption trial 2,[3]; 4 μM,8.481%
same,% disruption average,[3]; 8 μM,13.44%
same,% disruption trial 1,[3]; 8 μM,24.06%
same,% disruption trial 2,[3]; 8 μM,2.817%
same,% disruption average,[3]; 16 μM,30.79%
same,% disruption trial 1,[3]; 16 μM,47.34%
same,% disruption trial 2,[3]; 16 μM,14.23%
same,% disruption average,[3]; 31 μM,46.0133%
same,% disruption trial 1,[3]; 31 μM,61.1%
same,% disruption trial 2,[3]; 31 μM,30.93%
same,% disruption average,[3]; 63 μM,68.14%
same,% disruption trial 1,[3]; 63 μM,72.05%
same,% disruption trial 2,[3]; 63 μM,64.22%
same,% disruption average,[3]; 125 μM,65.66%
same,% disruption trial 1,[3]; 125 μM,65.04%
same,% disruption trial 2,[3]; 125 μM,66.29%
same,% disruption average,[3]; 250 μM,66.48%
same,% disruption trial 1,[3]; 250 μM,67.34%
same,% disruption trial 2,[3]; 250 μM,65.61%
same,Max % disruption,[3],68%
same,MIC for Gram-positive bacteria,Gram-positive bacteria,4 µM
same,MIC for Gram-negative bacteria,Gram-negative bacteria,4 to 8 µM
same,MIC Pa1 (G−),Pa1 (G−),8 µM
same,MIC Pa2 (G−),Pa2 (G−),8 µM
"NC[C@H]1O[C@H](O[C@H]2[C@H](O)[C@@H](O[C@H]3O[C@H](CO)[C@@H](O)[C@H](N)[C@H]3O)[C@H](N)C[C@@H]2N)[C@H](N)C[C@@H]1O [Tobramycin, reference compound]",Min conc. >50% disruption,[3],31 µM
same,% disruption average,[3]; 2 μM,6.808%
same,% disruption trial 1,[3]; 2 μM,0%
same,% disruption trial 2,[3]; 2 μM,13.62%
same,% disruption average,[3]; 4 μM,27.66%
same,% disruption trial 1,[3]; 4 μM,0%
same,% disruption trial 2,[3]; 4 μM,55.3151%
same,% disruption average,[3]; 8 μM,32.13%
same,% disruption trial 1,[3]; 8 μM,15.46%
same,% disruption trial 2,[3]; 8 μM,48.79%
same,% disruption average,[3]; 16 μM,13.9806%
same,% disruption trial 1,[3]; 16 μM,0%
same,% disruption trial 2,[3]; 16 μM,27.9612%
same,% disruption average,[3]; 31 μM,61.0098%
same,% disruption trial 1,[3]; 31 μM,51.89%
same,% disruption trial 2,[3]; 31 μM,70.13%
same,% disruption average,[3]; 63 μM,60.79%
same,% disruption trial 1,[3]; 63 μM,53.5149%
same,% disruption trial 2,[3]; 63 μM,68.07%
same,% disruption average,[3]; 125 μM,43.07%
same,% disruption trial 1,[3]; 125 μM,34.88%
same,% disruption trial 2,[3]; 125 μM,51.26%
same,% disruption average,[3]; 250 μM,3.803%
same,% disruption trial 1,[3]; 250 μM,0%
same,% disruption trial 2,[3]; 250 μM,7.607%
same,Max % disruption,[3],61%
same,MIC against P. aeruginosa,P. aeruginosa (G−) [4],6.4 µM
CCCCCCCCCCCCCC[N+](C)(C)Cc1cc(C[N+](C)(C)CCO)cc(C[N+](C)(C)CCCCCCCCCCCCCC)c1.[Br-].[Br-].[Br-] [Compound 4],Degree of Ionization,[2],0.18
same,CAC,[2],0.47 mM
same,MIC P. aeruginosa (G−),"P. aeruginosa (G−) [1]; Experiment 1, Table 2",125 µM
same,MIC P. aeruginosa (G−),"P. aeruginosa (G−) [1]; Experiment 2, Table 3",125 µM
same,MIC E. coli (G−),"E. coli (G−); Experiment 1, Table 2",8 µM
same,MIC E. coli (G−),"E. coli (G−); Experiment 2, Table 3",8 µM
same,MIC S. aureus (G+),"S. aureus (G+); Experiment 1, Table 2",8 µM
same,MIC S. aureus (G+),"S. aureus (G+); Experiment 2, Table 3",8 µM
same,MIC E. faecalis (G+),E. faecalis (G+),4 µM
same,MIC B. subtilis (G+),B. subtilis (G+),8 µM
same,MIC S. agalactiae (G+),S. agalactiae (G+),4 µM
same,MIC B. anthracis (G+),B. anthracis (G+),8 µM
same,MIC Pa1 (G−),Pa1 (G−),250 µM
same,MIC Pa2 (G−),Pa2 (G−),250 µM
CO/N=C(\C(=O)N[C@@H]1C(=O)N2C(C(=O)[O-])=C(C[N+]3(C)CCCC3)CS[C@H]12)c1csc(N)n1 [cefepime],MIC against P. aeruginosa,P. aeruginosa (G−) [4],12.5 µM
CCCCCCCCCC[N+](C)(C)Cc1cc(C[N+](C)(C)CCO)cc(C[N+](C)(C)CCCCCCCCCC)c1.[Br-].[Br-].[Br-] [Compound 2],Degree of Ionization,[2],0.24
same,CAC,[2],9.5 mM
same,MIC P. aeruginosa (G−),"P. aeruginosa (G−) [1]; Experiment 2, Table 3",250 µM
same,MIC E. coli (G−),"E. coli (G−); Experiment 2, Table 3",125 µM
same,MIC S. aureus (G+),"S. aureus (G+); Experiment 2, Table 3",125 µM
same,MIC E. faecalis (G+),E. faecalis (G+),4 µM
same,MIC B. subtilis (G+),B. subtilis (G+),16 µM
same,MIC S. agalactiae (G+),S. agalactiae (G+),4 µM
same,MIC B. anthracis (G+),B. anthracis (G+),4 µM
